Measurements from patent publication US20070015737A1, “Compounds for inhibiting diseases and preparing cells for transplantation” (Neurochem (International) Limited, priority 1999, published 2007).
“And” between values parts separate entries of the source, which are not always exact repeats. Equal entries are not always repeated.

How the values were obtained:
IAPP [1] = target: T1, IAPP (Homo sapiens, UniProt P10997); experiment: Rate of amyloid fibril formation by Thioflavine T spectroscopy (Example 1); type: biochemical; conditions: Thioflavine T fluorescence
T1 sequence (P10997 34-70 limits assumed): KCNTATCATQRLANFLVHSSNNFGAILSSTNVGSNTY
Method: Determination of the Rate of Amyloid Fibril Formation by Thioflavine T Spectroscopy
Detection of ThT fluorescence can be used as a sensitive assay for amyloid fibril formation under different conditions. This assay has been used in experiments to determine the effects of compounds of the invention on amyloid fibril formation.
Human IAPP was dissolved in 40% trifluoroethanol and freeze-dried into conveniently-sized aliquots. IAPP was prepared immediately before the measurements by dissolving in 40% 1,1,1,3,3,3-hexafluoro-2-propanol (HFIP) in water to maintain the peptide in alpha helical conformation and soluble. A stock solution of ThT (2.5 mM) was prepared, 7.9 mg in 10 mL Tris-HCl pH 7.0 and filtered (0.22 μm). Solutions were kept in the dark until use. Fluorescence was examined at 440 nm excitation (slit 5 nm), and emission at 482 nm (slit 10 nm) with stirring. […] of ThT stock (final concentration 62.5 μM) was added to peptide sample and made up to 1 mL in the cuvette. The sample was stirred for 5 min. before taking a reading. Measurements were made at an initial time point (5 min. from sample preparation), at intervals over the next 4-6 h and after overnight incubation at room temperature.

IAPP [2] = target: T1, IAPP; experiment: Circular dichroism analysis of β-sheet conformation (Example 2); type: biochemical; set-up: add 10 μL of 10 mg/mL IAPP stock solution (final 100 μg peptide); conditions: changes in ellipticity at 218 nm (β-sheet conformation); peptide:compound 1:10
Method: Circular dichroism analysis was conducted to confirm the activity of certain therapeutic compounds in preventing or inhibiting IAPP-associated fibril formation in accordance with the present disclosure by determining the presence or absence of β-sheet conformation.
The assay, a co-incubation procedure, examines the ability of a compound or substance to inhibit the assembly of amyloid fibrils, e.g., to test for the presence of the amyloidotic b-sheet conformation in the presence of soluble IAPP. Samples are run in the presence and absence (i.e., water alone) of buffering agent, which is done to determine if competitive effects are seen with the ionic buffer (usually phosphate).
Add components used at a molar ratio of 1:10 [peptide:compound]; add 10 μL of 10 mg/mL IAPP stock solution (final 100 μg peptide) to the aqueous solution containing compound to a final volume of 400 μl. The pH of the final assay solution is measured to ensure there is no fluctuation and the spectrum is accumulated using the parameters as shown above.
Add desired amount of compound to achieve a 1:10 molar ratio in 10 mM phosphate buffer, pH 7. Add 10 μL of 10 mg/mL IAPP stock solution (final peptide 100 μg) to the phosphate buffered solution containing the compound and bring to a final volume of 400 μL. The pH of the final assay solution is measured to ensure there is no fluctuation and the spectrum is accumulated using the parameters as shown above.
In both assays, a control sample is run with each test group. This control contains peptide only in water or buffer at a similar final volume of 400 μl. Spectra for the control are collected initially (first run) and at the end of the test (final run) to ensure that the peptide has not undergone extensive aggregation during the course of the assay. Spectra for the controls are used to compare with the measurements obtained with the treated samples.
Make fresh 1 mg/mL stock solution of IAPP in 10 mM phosphate buffer, pH 7. Add desired amount of compound to achieve a 1:10 molar ratio in 10 mM phosphate buffer, pH 7. Incubate for 3 days at room temperature. Make up to final volume of 400 μL with 10 mM phosphate buffer, pH 7. The pH of the final assay solution is measured to ensure there is no fluctuation and the spectrum is accumulated using the parameters as shown above. A similar control is run for comparative purposes.
Plots of the spectra (control and treated) are individually assembled and the changes in ellipticity at 218 nm are examined. This minimum is directly correlated with the amount of peptide in β-sheet conformation present in the sample. Changes in either a positive or negative direction are noted and a relative value (“active” or “not active”) assigned to the compound as a measure of activity.

Human IAPP (hIAPP) = target: T2, Human IAPP (hIAPP) (Homo sapiens, UniProt P10997); experiment: ELISA assay for quantitative determination of fibril formation (Example 4); type: biochemical; conditions: for proportion of non-fibrillar IAPP in the supernatant: IAPP 20 μM, inhibitor:IAPP molar ratio 10:1, compared to control
T2 construct: Human IAPP (hIAPP) was synthesised by solid state synthesis (Advanced Biotechnologies, UK); purchased Advanced Biotechnologies, UK; host or cells: chemical solid-phase synthesis
T2 sequence (P10997 34-70 limits assumed): T1 sequence (P10997 34-70 limits assumed)
Method: ELISA Assay for Quantitative Determination of Fibril Formation
Human IAPP (hIAPP) was synthesised by solid state synthesis (Advanced Biotechnologies, UK). Human IAPP forms fibrils immediately in aqueous media. Aliquots of IAPP in water (800 μg/ml) were stored frozen at −20° C. until use. These samples contain small numbers of fibrils visible with electron microscopy (em).
Two sets of samples containing IAPP (20 μM) with or without inhibitors (at a molar ratio of 10:1 with IAPP, (20 μM)) were prepared on day 1 in Tris buffer. One set was centrifuged, the supernatant removed and frozen immediately at −20° C. (Time zero time point). The other set was incubated overnight at room temp with shaking (time 24 h time point). On day 2 these samples were spun and supernatant removed to determine the proportion of non-fibrillar IAPP.
To assay IAPP in the supernatant both sets of samples were serially diluted in bicarbonate coating buffer, added to ELISA wells and incubated overnight. Plates were washed in phosphate buffer containing Tween (PBS/Tw)×3. Diluted antiserum raised against human IAPP was incubated on the plate for 90 minutes at 37° C. Following washing in PBS/Tw, alkaline phosphatase conjugated anti-rabbit antisera was incubated for 90 mins. Following washing in PBS/Tw, alkaline phosphate substrate was added and colour allowed to develop for 30 mins. Optical density was read at 405 nm.
Data from all samples was calculated to determine changes of IAPP concentration in the supernatant induced by the candidate substance immediately (i.e. at time zero) or after 24 h incubation. Data in FIG. 1 is expressed as the proportion of non-fibrillar IAPP in the supernatant of test samples compared to control at both time points.

IAPP [3] = target: T1, IAPP; experiment: Circular dichroic spectroscopy (Example 6); type: biochemical
Method: Circular Dichroic Spectroscopy
Human IAPP was prepared in 100% HFIP at 1 mg/ml filtered through a 0.31 μm filter, freeze dried in aliquots, resuspended in 20% HFIP and water, and filtered before analysis. The circular dichroic spectroscopy was performed in the same manner as described in Hubbard et al (1991) Biochem J, 275, 785-8. Samples were analysed immediately and after 24 h incubation with candidate substances i, iii, iv and x. […] After 24 h incubation the molecular conformation of IAPP (CNTL) was converted to β-conformation. […] This is prevented by the candidate compounds.

[4] = test system: amyloid in transgenic islets cells expressing human IAPP; experiment: Electron micrograph analysis of amyloid in cultured transgenic islets; type: cell-based, mouse
Description: These are used as a test system for determining the toxicity and effect of putative amyloid inhibitors in short term culture systems. Whereas normal mice can be used to determine toxicity of compounds added to the media, amyloid fibrils form only in murine islets isolated from transgenic mice expressing the gene for human IAPP (transgene incorporation was confirmed by PCR). These islets are isolated in a similar way to that of human islets and are handpicked from the digest and cultured in 16.7 mM glucose as above. Amyloid fibrils formed within 4 days of culture and can be quantified by quantitative electron microscopy. […] The cells were cultured for 6 days in 11.1 mM glucose and RPMI.
Transgenic islets cells were cultured as described above, for 7 days and the media changed every two days. At the end of the culture period the islets were fixed in 2.5% glutaraldehyde in 0.1M sodium phosphate buffer (pH 7.2) for one hour and post-fixed in 1% osmium tetroxide, and embedded in Spurr's resin (Taab Laboratories, Reading, UK) or contrast enhanced in 2% Uranyl Acetate, dehydrated in methanol and embedded in LRGold (Taab, as previous). Ultrathin sections of the islets were mounted on formvar coated nickel grids. Amyloid was identified by immunogold labelling of tissue sections with an antisera raised to human IAPP 1-37, human IAPP 17-37, rat IAPP 1-37 and goat anti-rabbit gold conjugate (10 nm diameter) either from Biocell, Cardiff, UK or Sigma or by use of protein A gold. Grids were examined in a JOEL electron microscrope at an excitation voltage of 80 kV.
Images of 3 islet sections at a low magnification were prepared. A montage of each islet was made from electron micrographs and the areas of both intra and extra cellular amyloid identified and marked. The total islet area, together with the area of intra and extra cellular amyloid was then calculated using image analysis (Kontron Image Processor). 3 separate islets were examined for each condition.

[5] = after 24 h incubation, IAPP alone converted to β-conformation
[6] = Average of 3 islets, 7 days culture
[7] = individual islets 1-3, 7 days culture

SMILES	Activity (IAPP [2])	IAPP-associated fibril assembly (IAPP [1])	proportion of non-fibrillar IAPP in the supernatant (Human IAPP (hIAPP))	further results
c1ccc2c(c1)CCNC2 [1,2,3,4-tetrahydroisoquinoline]		inhibit or prevent IAPP-associated fibril assembly		
COc1ccc(S(=O)(=O)O)c2cccnc12 [8-methoxyquinoline-5-sulfonic acid]		inhibit or prevent IAPP-associated fibril assembly		
O=S(=O)(O)NC1CCCCC1 [cyclohexylsulfamic acid]		inhibit or prevent IAPP-associated fibril assembly		
O=S(=O)(O)CCCNCCCO [i, 3-(3-hydroxy-1-propyl)amino-1-propanesulfonic acid]			increase the proportion of non-fibrillar IAPP in the supernatant	molecular conformation of IAPP (CD spectra) (IAPP [3]; [5]): remained in α-conformation; molecular conformation of IAPP (CD spectra) (IAPP [3]; time zero): typical CD spectra for α-conformation
c1ccc2c(c1)CCNC2 [iii, 1,2,3,4-tetrahydroisoquinoline]	Active		increase the proportion of non-fibrillar IAPP in the supernatant	molecular conformation of IAPP (CD spectra) (IAPP [3]; [5]): remained in α-conformation; molecular conformation of IAPP (CD spectra) (IAPP [3]; time zero): typical CD spectra for α-conformation
NCC(O)CS(=O)(=O)O (stereo not shown) [ix, 3-amino-2-hydroxy-1-propanesulfonic acid]			increase the proportion of non-fibrillar IAPP in the supernatant	
COc1ccc(S(=O)(=O)O)c2cccnc12 [vii, 8-methoxyquinoline-5-sulfonic acid]	Active		increase the proportion of non-fibrillar IAPP in the supernatant	Extra amyloid % of total [4, 6]: 1.6%; Extra amyloid area [4, 6]: 86.8 μm^2; Extra amyloid % of total [4, 7]: 1.9% and 0.5% and 3.4%; Extra amyloid area [4, 7]: 98.73 μm^2 and 37.9 μm^2 and 123.99 μm^2
O=S(=O)(O)CCCN1CC=C(c2ccccc2)CC1 [viii, 4-phenyl-1-(3′ sulfopropyl)-1,2,3,6-tetrahydropyridine]	Active	inhibit or prevent IAPP-associated fibril assembly	increase the proportion of non-fibrillar IAPP in the supernatant	
CN(C)CCCS(=O)(=O)O [x, 3-dimethylamino-1-propanesulfonic acid]			increase the proportion of non-fibrillar IAPP in the supernatant	time point at which the increase of non-fibrillar IAPP was greater (Human IAPP (hIAPP); time zero versus time 24 h): greater at time zero; molecular conformation of IAPP (CD spectra) (IAPP [3]; [5]): remained in α-conformation; molecular conformation of IAPP (CD spectra) (IAPP [3]; time zero): typical CD spectra for α-conformation

Now from value to molecule, other results behind:

Activity (IAPP [2])	SMILES	IAPP-associated fibril assembly (IAPP [1])	proportion of non-fibrillar IAPP in the supernatant (Human IAPP (hIAPP))	further results
Active	O=S(=O)(O)CCCNCCCO [3-(3-hydroxy-1-propyl)amino-1-propanesulfonic acid]	inhibit or prevent IAPP-associated fibril assembly		
Active	NCC(O)CS(=O)(=O)O (stereo not shown) [3-amino-2-hydroxy-1-propanesulfonic acid]	inhibit or prevent IAPP-associated fibril assembly		
Active	CN(C)CCCS(=O)(=O)O [3-dimethylamino-1-propanesulfonic acid]	inhibit or prevent IAPP-associated fibril assembly		
Active	O=S(=O)(O)NC1CCCCC1 [iv, Cyclohexylsulfamic acid]		increase the proportion of non-fibrillar IAPP in the supernatant	molecular conformation of IAPP (CD spectra) (IAPP [3]; [5]): remained in α-conformation; molecular conformation of IAPP (CD spectra) (IAPP [3]; time zero): typical CD spectra for α-conformation
Active	N[C@@H](COP(=O)(O)O)C(=O)O [v, O-Phospho-L-serine]	inhibit or prevent IAPP-associated fibril assembly	increase the proportion of non-fibrillar IAPP in the supernatant	
